Columns and labels:
[1] = system: permanent middle cerebral occlusion; conditions: monkeys, Marshall et al. 2001; cited from earlier work
[2] = system: MCA occlusion; conditions: male Wistar rats, 2 hour MCA occlusion, given 1 hour after recirculation; at 48 hours and 7 days; Kuroda et al. 1999; cited from earlier work
[3] = system: Cortical neurons; experiment: Protection of neuronal cells from NMDA excitotoxic damage; format: cell-based; conditions: drug 1-1000 μM, NMDA 100 μM, 24 h, FIG. 5
Experimental: Cortical neurons (9×10^4 cells/well) were placed into 96-well cell culture plates, and were incubated at 37° C. for 24 h under 5% CO2. The medium was changed, and the cells were incubated for another 12 h. Drugs at different concentrations 1000 μM, 100 μM, 10 μM, 1 μM) were added, and the cells were incubated at 37° C. for 30 min. NMDA (15 μL) was then added (final concentration of NMDA is 100 μM), and the cells were incubated for 24 h at 37° C. for 24 h under 5% CO2.

[4] = system: cortical neuronal cells; experiment: Protection of cortical neuronal cells from H2O2-induced oxidative damage (MTT); format: cell-based; conditions: cortical neurons, FIG. 4
Experimental: Cortical neurons (9×10^4 cells/well) were placed into 96-well cell culture plates, and were incubated at 37° C. for 24 h under 5% CO2. The medium was changed, and the cells were incubated for another 12 h. Drugs at different concentrations were added, and the cells were incubated at 37° C. for 30 min. Hydrogen peroxide were then added, and the cells were incubated for 24 h at 37° C. for 24 h under 5% CO2. A solution of 3-(4,5-dimethylthiazol-2-ly)-2,5-diphenyl-tetrazoliun bromide (MTT) was added, and the cells were incubated for another 4 h before DMSO was added. After the crystals were completely dissolved (30 min), the absorbance was read at 570 nm with a spectrophotometer (Bio-Rad Model 680, Japan). The results were expressed as the percentage of the control (saline group).

[5] = system: MCAo rat stroke model; experiment: Protection of stroke in MCAo rats (infarct area, TTC staining); format: in vivo; conditions: TBN 80 mg/kg i.p. 1 h after occlusion; 2 h ischemia, 24 h reperfusion; FIG. 6
Experimental: Female Sprague-Dawley rats (210-240 g) were anesthetized with 10% chloral hydrate (400 mg/kg) i.p. The right common carotid artery (CCA) was carefully exposed. The occipital branch of the external carotid artery (ECA) was coagulated and the internal carotid artery (ICA) was isolated. A poly-L-lysine-coated nylon suture (0.32 mm in diameter) was inserted into the ECA and advanced retrogradely until the bifurcation of the CCA from where it was advanced a distance of approximately 18-20 mm into the ICA to occlude the MCA. A ligature was tied around the ICA, the incisions were closed, and the animal was extubated.
TMP (50 mg/kg), TBN (80 mg/kg), PBN (65 mg/kg), Eda (62 mg/kg) and saline were administered i.p. 1 h after MAC occlusion, respectively. After 2 h of MCA occlusion, the suture was withdrawn to allow reperfusion. After 24 h of reperfusion, the animals were re-anesthetized with 10% chloral hydrate (400 mg/kg) i.p., and were then decapitated. The brain was quickly removed, rinsed with PBS, and stored in a refrigerator at −20° C. until it was frozen. The brain was sliced with a blade at every 2-mm from the frontal pole, and the slices were stained with 2,3,5-triphenyltetrazolium chloride (TTC, 0.5% in normal saline) for 30 min at 37° C. […] The area of infarction was quantified by the Osiris 4 software, and the results were expressed as the percentage of the total brain section area.

[6] = system: thrombus; experiment: Thrombolytic activity in rats (inferior vena cava ligation, dried thrombus weight); format: in vivo; conditions: TBN 3.25 mg/kg i.v.; rat; FIG. 7
Experimental: The abdomen was then closed. Drugs were administered 2 h after ligation i.v. via the dorsal tail vein. The abdomen was reopened after […] of ligation. The thrombus was removed and dried at 50° C. for 24 h. The dried thrombus was weighted.

[7] = intravenous injection, rat; Sheu et al. 1997; cited from earlier work
[8] = system: thrombosis; conditions: rat arterio- and phlebo-thrombosis models; Liu and Sylvester 1990; cited from earlier work
[9] = system: cerebral ischemia; conditions: rat 2-h MCA occlusion by intraluminal suture; Ley et al.; cited from earlier work

CC(C)(C)[N+]([O-])=Cc1ccc(S(=O)(=O)[O-])cc1S(=O)(=O)[O-].[Na+].[Na+] [NXY-059, disodium 4-[(tert-butylimino)methyl]benzene-1,3-disulfonate N-oxide]
reduction of overall amount of brain damage vs saline-treated control [1]: > 50% | infarct volume [2]: significantly reduced infarct volume

Cc1nc(C)c(/C=[N+](\[O-])C(C)(C)C)nc1C [TBN, 2-[[(1,1-Dimethylethyl)oxidoimino]methyl]-3,5,6-trimethylpyrazine]
protection of neuronal cells from NMDA toxicity [3]: significantly protected | effectiveness relative to Eda in protecting cortical neuronal cells from H2O2-induced damage ([4]; H2O2, MTT): approximately 10 fold | protection of cortical neuronal cells from H2O2-induced damage, compared with TMP and PBN ([4]; drug 30 min before H2O2, 24 h, MTT): more effective than either TMP or PBN | protective effect in MCAo rat stroke model (area of infarction) [5]: significant protective effects | thrombolytic activity (dried thrombus weight) [6]: significant thrombolytic activity

Cc1nc(C)c(C)nc1C [TMP, tetramethylpyrazine]
prolongation of bleeding time [7]: 1.5 times | thrombolytic activity [8]: showed thrombolytic activity

stilbazulenyl nitrone [STAZN]
neurological deficits compared with vehicle controls [9]: improved neurological deficits
